According to ChEMBL document CHEMBL5291721, “A preclinical secondary pharmacology resource illuminates target-adverse drug reaction associations of marketed drugs” (Nat Commun, 2023):

Key:
Mu-type opioid receptor = Mu-type opioid receptor (Homo sapiens, UniProt P35372)
D(3) dopamine receptor = D(3) dopamine receptor (Homo sapiens, UniProt P35462)
[1] = target: Sodium-dependent serotonin transporter (Homo sapiens, UniProt P31645)
[2] = target: Prostaglandin G/H synthase 1 (Homo sapiens, UniProt P23219); format: functional
Prostaglandin G/H synthase 1, sequence (P23219 whole entry): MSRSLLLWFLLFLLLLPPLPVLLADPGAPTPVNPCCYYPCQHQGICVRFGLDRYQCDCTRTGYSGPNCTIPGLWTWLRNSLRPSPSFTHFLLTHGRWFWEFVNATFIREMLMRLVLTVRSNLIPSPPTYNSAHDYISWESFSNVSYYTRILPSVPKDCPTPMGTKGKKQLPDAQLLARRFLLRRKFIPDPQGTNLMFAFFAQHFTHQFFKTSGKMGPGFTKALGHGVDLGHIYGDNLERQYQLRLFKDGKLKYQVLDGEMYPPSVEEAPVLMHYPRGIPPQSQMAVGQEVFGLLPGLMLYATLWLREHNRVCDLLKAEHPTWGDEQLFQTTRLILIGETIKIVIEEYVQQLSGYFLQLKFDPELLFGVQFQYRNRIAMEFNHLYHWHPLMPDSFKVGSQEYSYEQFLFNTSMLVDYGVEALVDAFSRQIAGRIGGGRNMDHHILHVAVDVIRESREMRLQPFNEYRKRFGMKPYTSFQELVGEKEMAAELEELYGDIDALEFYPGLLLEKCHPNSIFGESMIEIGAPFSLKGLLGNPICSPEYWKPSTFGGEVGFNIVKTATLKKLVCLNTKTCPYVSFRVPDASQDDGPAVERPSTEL

Acetylcholinesterase = Acetylcholinesterase (Homo sapiens, UniProt P22303); format: functional
Thromboxane A2 receptor = target: T1, Thromboxane A2 receptor (Homo sapiens, UniProt P21731); format: functional, cell-based
T1 sequence (P21731 whole entry): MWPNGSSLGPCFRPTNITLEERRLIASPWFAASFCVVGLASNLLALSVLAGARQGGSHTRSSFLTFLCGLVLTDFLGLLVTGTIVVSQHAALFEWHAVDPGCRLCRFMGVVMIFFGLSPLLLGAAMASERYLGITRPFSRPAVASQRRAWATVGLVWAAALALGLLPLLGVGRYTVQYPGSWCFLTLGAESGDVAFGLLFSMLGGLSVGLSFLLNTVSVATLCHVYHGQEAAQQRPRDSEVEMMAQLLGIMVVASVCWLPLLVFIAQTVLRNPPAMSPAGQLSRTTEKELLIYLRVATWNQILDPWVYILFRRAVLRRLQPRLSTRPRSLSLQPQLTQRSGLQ

Prothrombin = Prothrombin (Homo sapiens, UniProt P00734); format: functional
Adenosine receptor A3 = target: T2, Adenosine receptor A3 (Homo sapiens, UniProt P0DMS8)
T2 sequence (P0DMS8 whole entry): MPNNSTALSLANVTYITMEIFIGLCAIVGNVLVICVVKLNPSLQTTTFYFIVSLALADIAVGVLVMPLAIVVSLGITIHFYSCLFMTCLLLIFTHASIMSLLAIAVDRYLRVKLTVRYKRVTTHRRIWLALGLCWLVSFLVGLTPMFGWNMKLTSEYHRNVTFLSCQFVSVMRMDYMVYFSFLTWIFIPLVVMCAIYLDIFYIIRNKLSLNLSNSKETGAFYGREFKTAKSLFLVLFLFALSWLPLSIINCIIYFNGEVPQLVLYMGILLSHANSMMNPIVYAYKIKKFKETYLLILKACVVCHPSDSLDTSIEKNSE

[3] = target: Sodium-dependent dopamine transporter (Homo sapiens, UniProt Q01959)
Sodium-dependent dopamine transporter, sequence (Q01959 whole entry): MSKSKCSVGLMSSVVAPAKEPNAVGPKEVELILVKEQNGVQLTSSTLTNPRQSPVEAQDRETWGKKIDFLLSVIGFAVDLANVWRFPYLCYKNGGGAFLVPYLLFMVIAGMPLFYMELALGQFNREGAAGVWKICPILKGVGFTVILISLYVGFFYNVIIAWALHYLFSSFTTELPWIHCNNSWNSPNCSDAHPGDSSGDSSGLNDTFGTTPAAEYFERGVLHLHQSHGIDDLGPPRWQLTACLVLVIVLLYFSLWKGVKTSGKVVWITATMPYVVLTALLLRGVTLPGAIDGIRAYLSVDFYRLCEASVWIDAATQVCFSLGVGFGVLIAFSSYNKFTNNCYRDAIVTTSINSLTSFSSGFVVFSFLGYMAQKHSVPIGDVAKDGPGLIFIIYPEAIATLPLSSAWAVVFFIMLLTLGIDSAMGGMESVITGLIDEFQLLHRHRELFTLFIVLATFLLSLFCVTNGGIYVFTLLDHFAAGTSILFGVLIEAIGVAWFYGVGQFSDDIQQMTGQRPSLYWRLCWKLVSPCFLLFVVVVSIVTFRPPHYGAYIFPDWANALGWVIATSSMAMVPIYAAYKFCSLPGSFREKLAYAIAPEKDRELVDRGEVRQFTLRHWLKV

[4] = target: cGMP-inhibited 3',5'-cyclic phosphodiesterase 3A (Homo sapiens, UniProt Q14432); format: functional
cGMP-inhibited 3',5'-cyclic phosphodiesterase 3A, sequence (Q14432 whole entry): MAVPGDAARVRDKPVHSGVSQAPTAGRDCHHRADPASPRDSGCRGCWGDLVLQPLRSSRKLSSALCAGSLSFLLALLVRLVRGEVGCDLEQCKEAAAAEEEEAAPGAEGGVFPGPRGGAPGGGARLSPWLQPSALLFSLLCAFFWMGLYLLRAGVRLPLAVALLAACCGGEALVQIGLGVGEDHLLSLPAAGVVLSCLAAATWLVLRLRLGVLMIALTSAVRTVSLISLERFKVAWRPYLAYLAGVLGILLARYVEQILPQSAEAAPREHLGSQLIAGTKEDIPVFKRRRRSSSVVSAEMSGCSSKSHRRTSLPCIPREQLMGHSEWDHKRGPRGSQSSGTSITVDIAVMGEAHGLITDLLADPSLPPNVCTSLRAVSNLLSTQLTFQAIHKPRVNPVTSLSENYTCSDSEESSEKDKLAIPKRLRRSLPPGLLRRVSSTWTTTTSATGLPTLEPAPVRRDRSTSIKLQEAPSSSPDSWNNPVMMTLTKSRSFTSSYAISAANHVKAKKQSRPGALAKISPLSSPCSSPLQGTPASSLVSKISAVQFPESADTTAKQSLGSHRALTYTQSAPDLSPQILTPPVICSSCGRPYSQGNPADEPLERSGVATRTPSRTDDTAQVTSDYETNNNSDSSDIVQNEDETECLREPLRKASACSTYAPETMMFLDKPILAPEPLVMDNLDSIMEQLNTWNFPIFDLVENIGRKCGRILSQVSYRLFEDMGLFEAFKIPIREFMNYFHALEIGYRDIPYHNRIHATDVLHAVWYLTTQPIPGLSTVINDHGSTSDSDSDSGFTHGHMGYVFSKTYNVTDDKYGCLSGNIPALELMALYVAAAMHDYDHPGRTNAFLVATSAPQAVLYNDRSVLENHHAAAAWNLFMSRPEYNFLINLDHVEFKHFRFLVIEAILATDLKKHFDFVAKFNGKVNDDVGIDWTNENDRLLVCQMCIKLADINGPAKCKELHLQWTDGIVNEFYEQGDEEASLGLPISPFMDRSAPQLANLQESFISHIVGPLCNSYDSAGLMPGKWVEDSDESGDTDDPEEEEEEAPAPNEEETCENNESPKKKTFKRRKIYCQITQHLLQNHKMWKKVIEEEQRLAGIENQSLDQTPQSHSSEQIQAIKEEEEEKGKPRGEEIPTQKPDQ

[5] = target: Voltage-gated inwardly rectifying potassium channel KCNH2 (Homo sapiens, UniProt Q12809); format: functional; conditions: read-out: AC50
Voltage-gated inwardly rectifying potassium channel KCNH2, sequence (Q12809 whole entry): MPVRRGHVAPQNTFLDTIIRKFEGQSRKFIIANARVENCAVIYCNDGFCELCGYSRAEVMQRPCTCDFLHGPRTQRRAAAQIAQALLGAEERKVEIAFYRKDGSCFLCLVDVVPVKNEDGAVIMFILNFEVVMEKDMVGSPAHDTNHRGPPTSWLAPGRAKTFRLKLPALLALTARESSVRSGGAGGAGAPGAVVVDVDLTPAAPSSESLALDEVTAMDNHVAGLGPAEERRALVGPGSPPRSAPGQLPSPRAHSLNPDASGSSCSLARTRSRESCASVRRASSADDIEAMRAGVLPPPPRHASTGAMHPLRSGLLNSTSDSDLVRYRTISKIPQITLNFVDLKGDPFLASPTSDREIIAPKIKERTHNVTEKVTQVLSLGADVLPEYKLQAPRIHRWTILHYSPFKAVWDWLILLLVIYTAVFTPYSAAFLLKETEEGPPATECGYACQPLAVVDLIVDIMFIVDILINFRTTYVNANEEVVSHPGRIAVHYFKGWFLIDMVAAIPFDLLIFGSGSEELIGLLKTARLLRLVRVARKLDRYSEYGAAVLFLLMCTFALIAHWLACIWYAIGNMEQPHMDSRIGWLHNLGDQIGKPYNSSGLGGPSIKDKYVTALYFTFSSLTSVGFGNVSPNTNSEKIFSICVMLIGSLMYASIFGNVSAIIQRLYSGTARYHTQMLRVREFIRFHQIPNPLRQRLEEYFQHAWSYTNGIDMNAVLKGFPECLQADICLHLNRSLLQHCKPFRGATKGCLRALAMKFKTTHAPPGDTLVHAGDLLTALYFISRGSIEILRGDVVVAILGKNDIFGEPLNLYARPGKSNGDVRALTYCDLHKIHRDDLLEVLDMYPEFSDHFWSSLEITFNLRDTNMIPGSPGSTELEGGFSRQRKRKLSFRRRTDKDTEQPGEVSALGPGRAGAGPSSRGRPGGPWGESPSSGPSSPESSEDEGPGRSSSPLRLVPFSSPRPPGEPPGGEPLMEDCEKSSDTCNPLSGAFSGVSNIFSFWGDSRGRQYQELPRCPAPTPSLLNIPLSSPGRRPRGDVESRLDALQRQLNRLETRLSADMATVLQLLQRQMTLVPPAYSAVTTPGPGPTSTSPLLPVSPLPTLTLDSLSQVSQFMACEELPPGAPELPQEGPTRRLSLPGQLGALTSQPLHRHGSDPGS

[6] = target: 5-hydroxytryptamine receptor 2B (Homo sapiens, UniProt P41595); format: functional, cell-based
5-hydroxytryptamine receptor 2B, sequence (P41595 whole entry): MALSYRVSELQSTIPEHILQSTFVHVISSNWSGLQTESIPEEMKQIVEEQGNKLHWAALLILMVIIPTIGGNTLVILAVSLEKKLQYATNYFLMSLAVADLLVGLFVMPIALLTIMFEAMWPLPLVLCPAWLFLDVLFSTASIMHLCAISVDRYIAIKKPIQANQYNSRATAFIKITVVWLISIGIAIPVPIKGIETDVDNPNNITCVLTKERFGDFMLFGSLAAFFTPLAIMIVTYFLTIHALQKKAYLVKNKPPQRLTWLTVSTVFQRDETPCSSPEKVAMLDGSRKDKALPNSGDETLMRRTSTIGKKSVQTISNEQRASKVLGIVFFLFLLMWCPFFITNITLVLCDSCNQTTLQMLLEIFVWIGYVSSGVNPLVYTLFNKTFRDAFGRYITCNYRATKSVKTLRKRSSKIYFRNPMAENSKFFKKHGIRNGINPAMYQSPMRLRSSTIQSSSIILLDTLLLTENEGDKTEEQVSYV

[7] = target: T3, 5-hydroxytryptamine receptor 1A (Homo sapiens, UniProt P08908)
T3 sequence (P08908 whole entry): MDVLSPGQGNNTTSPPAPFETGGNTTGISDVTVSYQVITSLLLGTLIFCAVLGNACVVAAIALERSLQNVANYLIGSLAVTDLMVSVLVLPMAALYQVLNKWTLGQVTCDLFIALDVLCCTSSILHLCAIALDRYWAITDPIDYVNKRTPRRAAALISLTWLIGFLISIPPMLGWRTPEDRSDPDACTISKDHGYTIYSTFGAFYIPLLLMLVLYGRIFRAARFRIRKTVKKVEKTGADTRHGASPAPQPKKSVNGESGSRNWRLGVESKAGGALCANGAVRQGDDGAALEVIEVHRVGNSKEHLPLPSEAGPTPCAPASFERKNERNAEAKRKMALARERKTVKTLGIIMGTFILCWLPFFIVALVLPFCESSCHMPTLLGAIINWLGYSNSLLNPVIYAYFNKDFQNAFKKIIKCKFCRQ

[8] = target: T4, Amine oxidase [flavin-containing] A (Homo sapiens, UniProt P21397); format: functional
T4 sequence (P21397 whole entry): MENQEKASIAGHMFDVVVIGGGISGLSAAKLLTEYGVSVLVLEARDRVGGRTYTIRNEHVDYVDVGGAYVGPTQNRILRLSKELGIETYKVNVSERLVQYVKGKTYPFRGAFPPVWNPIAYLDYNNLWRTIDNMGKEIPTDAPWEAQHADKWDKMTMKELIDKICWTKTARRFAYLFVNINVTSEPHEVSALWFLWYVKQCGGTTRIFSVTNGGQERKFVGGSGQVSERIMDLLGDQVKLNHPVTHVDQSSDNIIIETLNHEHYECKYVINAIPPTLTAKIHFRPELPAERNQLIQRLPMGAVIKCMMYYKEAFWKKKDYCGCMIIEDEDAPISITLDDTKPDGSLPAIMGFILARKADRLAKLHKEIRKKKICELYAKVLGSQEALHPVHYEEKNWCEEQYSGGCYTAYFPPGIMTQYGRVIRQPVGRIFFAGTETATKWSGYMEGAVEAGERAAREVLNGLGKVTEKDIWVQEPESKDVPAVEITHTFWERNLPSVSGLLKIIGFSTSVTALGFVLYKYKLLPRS

[9] = target: T5, Alpha-1A adrenergic receptor (Homo sapiens, UniProt P35348); format: functional, cell-based
T5 sequence (P35348 whole entry): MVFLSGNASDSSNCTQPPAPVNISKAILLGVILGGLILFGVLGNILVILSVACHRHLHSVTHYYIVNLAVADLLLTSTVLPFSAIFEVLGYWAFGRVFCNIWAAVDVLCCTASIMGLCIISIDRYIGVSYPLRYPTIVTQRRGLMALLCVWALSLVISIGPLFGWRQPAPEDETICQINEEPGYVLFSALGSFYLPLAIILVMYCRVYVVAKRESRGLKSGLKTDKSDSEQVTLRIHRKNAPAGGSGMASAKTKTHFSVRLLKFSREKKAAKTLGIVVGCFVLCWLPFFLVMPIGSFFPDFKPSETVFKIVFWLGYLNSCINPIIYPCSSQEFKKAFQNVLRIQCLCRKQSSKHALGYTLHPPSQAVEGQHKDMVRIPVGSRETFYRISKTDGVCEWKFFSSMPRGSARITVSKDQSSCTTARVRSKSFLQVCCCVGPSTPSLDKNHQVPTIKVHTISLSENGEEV
Also: assay procedure not described here.

Mu-type opioid receptor, sequence (P35372 whole entry): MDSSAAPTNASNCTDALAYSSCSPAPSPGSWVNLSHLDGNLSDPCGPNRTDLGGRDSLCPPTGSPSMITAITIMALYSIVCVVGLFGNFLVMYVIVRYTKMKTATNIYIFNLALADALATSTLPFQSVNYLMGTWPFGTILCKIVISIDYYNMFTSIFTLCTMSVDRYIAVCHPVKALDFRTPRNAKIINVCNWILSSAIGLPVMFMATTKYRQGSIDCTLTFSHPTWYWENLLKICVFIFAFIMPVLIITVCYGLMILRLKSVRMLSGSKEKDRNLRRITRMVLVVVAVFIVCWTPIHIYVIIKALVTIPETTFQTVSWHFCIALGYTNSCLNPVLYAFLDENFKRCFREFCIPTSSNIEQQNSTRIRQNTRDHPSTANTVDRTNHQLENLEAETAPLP
Sodium-dependent serotonin transporter, sequence (P31645 whole entry): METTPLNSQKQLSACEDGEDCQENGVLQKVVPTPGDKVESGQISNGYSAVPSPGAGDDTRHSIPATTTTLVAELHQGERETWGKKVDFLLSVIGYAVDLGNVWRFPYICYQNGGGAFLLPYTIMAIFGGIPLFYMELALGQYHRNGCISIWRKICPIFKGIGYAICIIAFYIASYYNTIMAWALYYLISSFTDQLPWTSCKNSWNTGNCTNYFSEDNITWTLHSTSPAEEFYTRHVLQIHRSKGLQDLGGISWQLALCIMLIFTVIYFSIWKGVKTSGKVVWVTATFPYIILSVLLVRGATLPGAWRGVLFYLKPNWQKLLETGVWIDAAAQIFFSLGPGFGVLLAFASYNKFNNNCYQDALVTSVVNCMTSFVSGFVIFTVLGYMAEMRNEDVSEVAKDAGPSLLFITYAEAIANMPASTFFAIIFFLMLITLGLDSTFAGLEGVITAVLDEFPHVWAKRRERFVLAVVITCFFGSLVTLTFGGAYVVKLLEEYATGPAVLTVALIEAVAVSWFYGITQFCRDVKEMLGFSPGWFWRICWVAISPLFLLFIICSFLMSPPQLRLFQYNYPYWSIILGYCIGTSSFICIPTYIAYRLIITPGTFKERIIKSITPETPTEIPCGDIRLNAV

SMILES: NC(=O)N/N=C/c1ccc([N+](=O)[O-])o1 [NITROFURAZONE]
- AC50 (Mu-type opioid receptor): > 30 µM
- AC50 (D(3) dopamine receptor): > 30 µM
- AC50 [1]: > 30 µM
- AC50 [2]: > 30 µM
- AC50 (Acetylcholinesterase): > 30 µM
- AC50 (Thromboxane A2 receptor): > 30 µM
- AC50 (Prothrombin): > 30 µM
- AC50 (Adenosine receptor A3): > 30 µM
- AC50 [3]: > 30 µM
- AC50 [4]: 29.8 µM
- AC50 [5]: > 30 µM
- AC50 [6]: > 30 µM
- AC50 [7]: > 30 µM
- AC50 [8]: > 30 µM
- AC50 [9]: > 30 µM

SMILES: CC(C)N1CCOC(c2cccc(C(F)(F)F)c2)C1 (stereo not given) [OXAFLOZANE]
- AC50 (Mu-type opioid receptor): > 30 µM
- AC50 (D(3) dopamine receptor): 1.65 µM
- AC50 [1]: > 30 µM
- AC50 [2]: > 30 µM
- AC50 (Acetylcholinesterase): > 30 µM
- AC50 (Thromboxane A2 receptor): > 30 µM
- AC50 (Prothrombin): > 30 µM
- AC50 (Adenosine receptor A3): > 30 µM
- AC50 [3]: > 30 µM
- AC50 [4]: > 30 µM
- AC50 [5]: > 30 µM
- AC50 [6]: 1.01 µM
- AC50 [7]: 0.513 µM
- AC50 [8]: > 30 µM
- AC50 [9]: > 30 µM

SMILES: O=C1Nc2ccccc2C1(c1ccc(O)cc1)c1ccc(O)cc1 [OXYPHENISATINE]
- AC50 (Mu-type opioid receptor): > 30 µM
- AC50 (D(3) dopamine receptor): > 30 µM
- AC50 [1]: > 30 µM
- AC50 [2]: > 30 µM
- AC50 (Acetylcholinesterase): > 30 µM
- AC50 (Thromboxane A2 receptor): > 30 µM
- AC50 (Prothrombin): > 30 µM
- AC50 (Adenosine receptor A3): 5.01 µM
- AC50 [3]: > 30 µM
- AC50 [4]: > 30 µM
- AC50 [5]: 10.1 µM
- AC50 [6]: > 30 µM
- AC50 [7]: > 30 µM
- AC50 [8]: > 30 µM
- AC50 [9]: > 30 µM

SMILES: CN1C(C(=O)Nc2ccccn2)=C(OC(=O)/C=C/c2ccccc2)c2ccccc2S1(=O)=O [PIROXICAM CINNAMATE]
- AC50 (Mu-type opioid receptor): > 30 µM
- AC50 (D(3) dopamine receptor): > 30 µM
- AC50 [1]: > 30 µM
- AC50 [2]: 16.3 µM
- AC50 (Acetylcholinesterase): > 30 µM
- AC50 (Thromboxane A2 receptor): > 30 µM
- AC50 (Prothrombin): > 30 µM
- AC50 (Adenosine receptor A3): > 30 µM
- AC50 [3]: > 30 µM
- AC50 [4]: > 30 µM
- AC50 [5]: > 30 µM
- AC50 [6]: > 30 µM
- AC50 [7]: 13.4 µM
- AC50 [8]: > 10 µM
- AC50 [9]: > 30 µM

SMILES: Cc1c(C(C)C)c(=O)n(-c2ccccc2)n1C [PROPYPHENAZONE]
- AC50 (Mu-type opioid receptor): > 30 µM
- AC50 (D(3) dopamine receptor): > 30 µM
- AC50 [1]: > 30 µM
- AC50 [2]: > 30 µM
- AC50 (Acetylcholinesterase): > 30 µM
- AC50 (Thromboxane A2 receptor): > 30 µM
- AC50 (Prothrombin): > 30 µM
- AC50 (Adenosine receptor A3): 21.9 µM
- AC50 [3]: > 30 µM
- AC50 [4]: > 30 µM
- AC50 [5]: > 30 µM
- AC50 [6]: > 30 µM
- AC50 [7]: > 30 µM
- AC50 [8]: > 30 µM
- AC50 [9]: > 30 µM

SMILES: Cc1ncc(CO)c(CO)c1O [PYRIDOXINE]
- AC50 (Mu-type opioid receptor): > 30 µM
- AC50 (D(3) dopamine receptor): > 30 µM
- AC50 [1]: > 30 µM
- AC50 [2]: > 30 µM
- AC50 (Acetylcholinesterase): > 30 µM
- AC50 (Thromboxane A2 receptor): > 30 µM
- AC50 (Prothrombin): > 30 µM
- AC50 (Adenosine receptor A3): > 30 µM
- AC50 [3]: > 30 µM
- AC50 [4]: > 30 µM
- AC50 [5]: > 30 µM
- AC50 [6]: > 30 µM
- AC50 [7]: > 30 µM
- AC50 [8]: > 30 µM
- AC50 [9]: > 30 µM

SMILES: Cc1cn(-c2cc(NC(=O)c3ccc(C)c(Nc4nccc(-c5cnccn5)n4)c3)cc(C(F)(F)F)c2)cn1 [RADOTINIB]
- AC50 (Mu-type opioid receptor): > 3 µM
- AC50 (D(3) dopamine receptor): > 30 µM
- AC50 [1]: > 30 µM
- AC50 [2]: 26 µM
- AC50 (Acetylcholinesterase): > 10 µM
- AC50 (Thromboxane A2 receptor): > 30 µM
- AC50 (Prothrombin): > 30 µM
- AC50 (Adenosine receptor A3): 0.298 µM
- AC50 [3]: > 30 µM
- AC50 [4]: > 3 µM
- AC50 [5]: > 30 µM
- AC50 [6]: > 30 µM
- AC50 [7]: > 30 µM
- AC50 [8]: > 30 µM
- AC50 [9]: > 30 µM

SMILES: COC(=O)N(C)c1c(N)nc(-c2nn(Cc3ccccc3F)c3ncccc23)nc1N [RIOCIGUAT]
- AC50 (Mu-type opioid receptor): > 30 µM
- AC50 (D(3) dopamine receptor): > 30 µM
- AC50 [1]: > 30 µM
- AC50 [2]: > 30 µM
- AC50 (Acetylcholinesterase): > 30 µM
- AC50 (Thromboxane A2 receptor): > 30 µM
- AC50 (Prothrombin): > 30 µM
- AC50 (Adenosine receptor A3): 13.9 µM
- AC50 [3]: > 30 µM
- AC50 [4]: > 30 µM
- AC50 [5]: 5 µM
- AC50 [6]: > 30 µM
- AC50 [7]: > 30 µM
- AC50 [8]: > 30 µM
- AC50 [9]: > 30 µM

SMILES: [H]/N=C(/N)NS(=O)(=O)c1ccc(N)cc1 [SULFAGUANIDINE]
- AC50 (Mu-type opioid receptor): > 30 µM
- AC50 (D(3) dopamine receptor): > 30 µM
- AC50 [1]: > 30 µM
- AC50 [2]: > 30 µM
- AC50 (Acetylcholinesterase): > 30 µM
- AC50 (Thromboxane A2 receptor): > 30 µM
- AC50 (Prothrombin): > 30 µM
- AC50 (Adenosine receptor A3): > 30 µM
- AC50 [3]: > 30 µM
- AC50 [4]: > 30 µM
- AC50 [5]: > 30 µM
- AC50 [6]: > 30 µM
- AC50 [7]: > 30 µM
- AC50 [8]: > 30 µM
- AC50 [9]: > 30 µM
